Target: T1, ALK (baculovirus expressed human ALK kinase domain F1098-K1410) (Homo sapiens, UniProt Q9UM73)
T1 construct: baculovirus expressed human ALK kinase domain F1098-K1410; made in house
Assay: Luciferase-Coupled Chemiluminescent Kinase assay (LCCA), ALK biochemical activity
Conditions: inhibition of ALK; mean values; 1 μM ATP, 4 μM poly-AEKY, 12 nM ALK, 2 hours ambient temperature
Experimental: ALK biochemical activity was assessed using a Luciferase-Coupled Chemiluminescent Kinase assay (LCCA) format in which kinase activity was measured as the percent ATP remaining following the kinase reaction. ATP remaining after the kinase reaction was detected by luciferase-luciferin-coupled chemiluminescence.
The reaction was initiated by mixing test compounds, 1 μM ATP, 4 μM poly-AEKY and 12 nM ALK (baculovirus expressed human ALK kinase domain F1098-K1410) in a 20 μL assay buffer ([…] pH 7.5, 10 mM MgCl2, 0.02% Triton X-100, 100 mM DTT, 2 mM MnCl2). The mixture was incubated at ambient temperature for 2 hours after which 20 μL luciferase-luciferin mix was added and the chemiluminescent signal read using a Wallac Victor^2 reader. The luciferase-luciferin mix consists of 50 mM HEPES, pH 7.8, 8.5 μg/mL oxalic acid (pH 7.8), 5 (or 50) mM DTT, 0.4% Triton X-100, 0.25 mg/mL coenzyme A, 63 μM AMP, 28 μg/mL luciferin and 40,000 units of light/mL luciferase.
Consumption of ATP by ALK can thus be quantified and utilized as a measure of inhibition of ALK activity by compounds described herein. By employing serial dilutions of compounds to be tested, the ability of test compounds to inhibit ALK activity can be determined.

T1 sequence (Q9UM73 1098-1410): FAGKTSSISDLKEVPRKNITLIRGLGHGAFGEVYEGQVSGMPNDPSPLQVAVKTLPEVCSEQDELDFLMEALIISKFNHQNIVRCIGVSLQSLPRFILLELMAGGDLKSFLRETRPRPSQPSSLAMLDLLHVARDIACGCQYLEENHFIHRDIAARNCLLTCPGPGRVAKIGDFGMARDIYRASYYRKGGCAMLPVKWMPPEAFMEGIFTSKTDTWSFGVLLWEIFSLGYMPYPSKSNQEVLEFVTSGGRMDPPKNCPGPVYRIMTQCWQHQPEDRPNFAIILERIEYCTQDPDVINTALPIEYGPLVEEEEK

IC50, 100 to 999 nM:
COCCOc1cc2c(-c3ccc(O)c(Cl)c3)nc3[nH]nc(C)c3c2cc1OCCOC [Example 117, 2-chloro-4-(1-methyl-7,8-bis{[2-(methyloxy)ethyl]oxy}-3H-pyrazolo[3,4-c]isoquinolin-5-yl)phenol]
COCCOc1cc2c(-c3ccc(O)c(Br)c3)nc3[nH]nc(C)c3c2cc1OCCOC [Example 118, 2-bromo-4-(1-methyl-7,8-bis{[2-(methyloxy)ethyl]oxy}-3H-pyrazolo[3,4-c]isoquinolin-5-yl)phenol]
COc1cc2c(-c3ccc(O)cc3)cc3[nH]nc(C)c3c2c(F)c1OC [Example 123, 4-[9-fluoro-1-methyl-7,8-bis(methyloxy)-3H-benzo[e]indazol-5-yl]phenol]
CCOc1cc2c(cc1OC)c(-c1ccc(O)c(Cl)c1)nc1[nH]nc(C)c12 [Example 128, 2-chloro-4-[8-(ethyloxy)-1-methyl-7-(methyloxy)-3H-pyrazolo[3,4-c]isoquinolin-5-yl]phenol]
COc1cc2c(c(-c3ccc(O)c(Cl)c3)nc3[nH]nc(C)c32)c(Cl)c1OC [Example 129, 2-chloro-4-[6-chloro-1-methyl-7,8-bis(methyloxy)-3H-pyrazolo[3,4-c]isoquinolin-5-yl]phenol]
COc1cc2c(-c3ccc(O)c(Cl)c3)nc3[nH]nc(C)c3c2cc1OCC(C)C [Example 134, 2-chloro-4-{1-methyl-7-(methyloxy)-8-[(2-methylpropyl)oxy]-3H-pyrazolo[3,4-c]isoquinolin-5-yl}phenol]
COc1cc2c(-c3ccc(O)c(Cl)c3)nc3[nH]ncc3c2cc1OC [Example 136, 4-[7,8-bis(methyloxy)-3H-pyrazolo[3,4-c]isoquinolin-5-yl]-2-chlorophenol]
COc1cc2c(-c3ccc(O)c(Cl)c3)nc3[nH]nc(C(F)(F)F)c3c2cc1OC [Example 137, 4-[7,8-bis(methyloxy)-1-(trifluoromethyl)-3H-pyrazolo[3,4-c]isoquinolin-5-yl]-2-chlorophenol]
COCc1n[nH]c2nc(-c3ccc(O)c(Cl)c3)c3cc(OC)c(OC)cc3c12 [Example 138, 4-{7,8-bis(methyloxy)-1-[(methyloxy)methyl]-3H-pyrazolo[3,4-c]isoquinolin-5-yl}-2-chlorophenol]

IC50, > 2000 nM:
Cc1n[nH]c2nc(-c3cccc(Cl)c3)c3ccc4c(c3c12)OCCO4 [Example 149, 7-(3-chlorophenyl)-11-methyl-2,3-dihydro-9H-[1,4]dioxino[2,3-f]pyrazolo[3,4-c]isoquinoline]

IC50, ≤ 99 nM:
COCCOc1cc2c(cc1OC)c(-c1ccc(O)c(Br)c1)nc1[nH]nc(C)c12 [Example 116, 2-bromo-4-(1-methyl-7-(methyloxy)-8-{[2-(methyloxy)ethyl]oxy}-3H-pyrazolo[3,4-c]isoquinolin-5-yl)phenol]
COCCOc1cc(F)c2c(-c3ccc(O)cc3)nc3[nH]nc(C)c3c2c1F [Example 120, 4-(6,9-difluoro-1-methyl-8-{[2-(methyloxy)ethyl]oxy}-3H-pyrazolo[3,4-c]isoquinolin-5-yl)phenol]
COc1cc2c(-c3cc(Cl)c(O)cc3F)nc3[nH]nc(C)c3c2cc1OC [Example 121, 2-chloro-5-fluoro-4-[1-methyl-7,8-bis(methyloxy)-3H-pyrazolo[3,4-c]isoquinolin-5-yl]phenol]
COc1cc2c(-c3cc(Br)c(O)cc3F)nc3[nH]nc(C)c3c2cc1OC [Example 122, 2-bromo-5-fluoro-4-[1-methyl-7,8-bis(methyloxy)-3H-pyrazolo[3,4-c]isoquinolin-5-yl]phenol]
COCCOc1cc2c(cc1OC)c(-c1ccc(O)cc1F)nc1[nH]nc(C)c12 [Example 125, 3-fluoro-4-(1-methyl-7-(methyloxy)-8-{[2-(methyloxy)ethyl]oxy}-3H-pyrazolo[3,4-c]isoquinolin-5-yl)phenol]
COCCOc1cc(F)c2c(-c3ccc(O)cc3F)nc3[nH]nc(C)c3c2c1F [Example 126, 4-(6,9-difluoro-1-methyl-8-{[2-(methyloxy)ethyl]oxy}-3H-pyrazolo[3,4-c]isoquinolin-5-yl)-3-fluorophenol]
COCCOc1cc(F)c2c(-c3ccc(O)c(Cl)c3)nc3[nH]nc(C)c3c2c1F [Example 127, 2-chloro-4-(6,9-difluoro-1-methyl-8-{[2-(methyloxy)ethyl]oxy}-3H-pyrazolo[3,4-c]isoquinolin-5-yl)phenol]
COCCOc1ccc2c(-c3ccc(O)cc3F)nc3[nH]nc(C)c3c2c1OC [Example 130, 3-fluoro-4-(1-methyl-9-(methyloxy)-8-{[2-(methyloxy)ethyl]oxy}-3H-pyrazolo[3,4-c]isoquinolin-5-yl)phenol]
COCCOc1cc2c(cc1C)c(-c1ccc(O)c(Cl)c1)nc1[nH]nc(C)c12 [Example 131, 2-chloro-4-(1,7-dimethyl-8-{[2-(methyloxy)ethyl]oxy}-3H-pyrazolo[3,4-c]isoquinolin-5-yl)phenol]
COCCOc1cc2c(c(-c3ccc(O)cc3F)nc3[nH]nc(C)c32)c(F)c1OC [Example 132, 3-fluoro-4-(6-fluoro-1-methyl-7-(methyloxy)-8-{[2-(methyloxy)ethyl]oxy}-3H-pyrazolo[3,4-c]isoquinolin-5-yl)phenol]
COc1cc2c(-c3ccc(O)c(Cl)c3)nc3[nH]nc(C)c3c2cc1OC(C)C [Example 133, 2-chloro-4-[1-methyl-8-[(1-methylethyl)oxy]-7-(methyloxy)-3H-pyrazolo[3,4-c]isoquinolin-5-yl]phenol]
COCCOc1cc2c(cc1OC)c(-c1cc(Br)c(O)cc1F)nc1[nH]nc(C)c12 [Example 135, 2-bromo-5-fluoro-4-(1-methyl-7-(methyloxy)-8-{[2-(methyloxy)ethyl]oxy}-3H-pyrazolo[3,4-c]isoquinolin-5-yl)phenol]
Cc1n[nH]c2nc(-c3ccc(O)c(Cl)c3)c3cc4c(cc3c12)OCO4 [Example 139, 2-chloro-4-(1-methyl-3H-[1,3]dioxolo[4,5-g]pyrazolo[3,4-c]isoquinolin-5-yl)phenol]
Cc1n[nH]c2nc(-c3ccc(O)c(Cl)c3)c3cc4c(cc3c12)OCCO4 [Example 140, 2-chloro-4-(1-methyl-8,9-dihydro-3H-[1,4]dioxino[2,3-g]pyrazolo[3,4-c]isoquinolin-5-yl)phenol]
Cc1n[nH]c2nc(-c3ccc(O)c(Cl)c3)c3cc4c(cc3c12)OCCCO4 [Example 141, 2-chloro-4-(1-methyl-9,10-dihydro-3H,8H-[1,4]dioxepino[2,3-g]pyrazolo[3,4-c]isoquinolin-5-yl)phenol]
COc1cc2c(cc1OC(F)F)c(-c1ccc(O)c(Cl)c1)nc1[nH]nc(C)c12 [Example 142, 2-chloro-4-[7-[(difluoromethyl)oxy]-1-methyl-8-(methyloxy)-3H-pyrazolo[3,4-c]isoquinolin-5-yl]phenol]
COCCOc1cc(F)c2c(-c3cc(Cl)c(O)cc3F)nc3[nH]nc(C)c3c2c1OC [Example 143, 2-chloro-5-fluoro-4-(6-fluoro-1-methyl-9-(methyloxy)-8-{[2-(methyloxy)ethyl]oxy}-3H-pyrazolo[3,4-c]isoquinolin-5-yl)phenol]
COCCOc1cc(F)c2c(-c3cc(Cl)c(O)cc3F)nc3[nH]nc(C)c3c2c1F [Example 144, 2-chloro-4-(6,9-difluoro-1-methyl-8-{[2-(methyloxy)ethyl]oxy}-3H-pyrazolo[3,4-c]isoquinolin-5-yl)-5-fluorophenol]
Cc1n[nH]c2nc(-c3ccc(O)c(Cl)c3)c3ccc4c(c3c12)OCCO4 [Example 145, 2-chloro-4-(11-methyl-2,3-dihydro-9H-[1,4]dioxino[2,3-f]pyrazolo[3,4-c]isoquinolin-7-yl)phenol]
Cc1n[nH]c2nc(-c3cc(Cl)c(O)cc3F)c3ccc4c(c3c12)OCCO4 [Example 146, 2-chloro-5-fluoro-4-(11-methyl-2,3-dihydro-9H-[1,4]dioxino[2,3-f]pyrazolo[3,4-c]isoquinolin-7-yl)phenol]
COc1cc2c(c(-c3ccc(O)c(Cl)c3)nc3[nH]nc(C)c32)c(OC)c1OC [Example 147, 2-chloro-4-[1-methyl-6,7,8-tris(methyloxy)-3H-pyrazolo[3,4-c]isoquinolin-5-yl]phenol]
COCCOc1cc(F)c2c(-c3cc(Br)c(O)cc3F)nc3[nH]nc(C)c3c2c1F [Example 148, 2-bromo-4-(6,9-difluoro-1-methyl-8-{[2-(methyloxy)ethyl]oxy}-3H-pyrazolo[3,4-c]isoquinolin-5-yl)-5-fluorophenol]
Cc1n[nH]c2nc(-c3cc(Cl)c(O)cc3F)c3c(F)c4c(cc3c12)OCCO4 [Example 150, 2-chloro-5-fluoro-4-(6-fluoro-1-methyl-8,9-dihydro-3H-[1,4]dioxino[2,3-g]pyrazolo[3,4-c]isoquinolin-5-yl)phenol]
COc1cc2c(-c3ccc(O)c(Cl)c3)nc3[nH]nc(C)c3c2cc1OCC1CCCO1 (stereo not shown) [Example 151, 2-chloro-4-{1-methyl-7-(methyloxy)-8-[(tetrahydrofuran-2-ylmethyl)oxy]-3H-pyrazolo[3,4-c]isoquinolin-5-yl}phenol]

Source: US7872014B2, “Anaplastic lymphoma kinase modulators and methods of use” (Exelixis, Inc., priority 2003, dated 2011)
